Literature values in publication PMC3090270 (Structure (London, England : 1993), 2010).

Key:
cardiac myocytes = settings: H2O2 treatment, ref Brennan et al., 2006
RI subunits = settings: ref Huang et al., 1997b (D-AKAP1), 1997a (D-AKAP2), Reinton et al., 2000 (AKAP220), Gronholm et al., 2003 (Merlin), Li et al., 2001 (Pap7)

| Compound | disulfide formation in RIα D/D (cardiac myocytes) | nuclear localization of PKA (cardiac myocytes) | binding to RI subunits (dual-specific) (RI subunits) |
| --- | --- | --- | --- |
| OO [H2O2] | increased disulfide bond formation | nuclear localization of PKA |  |
| AKAP220: dual-specific AKAP |  |  | bind RI subunits |
